Source: PubChem BioAssay (NCI)
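Assay format: 96-well plates, 48-hour exposure. The concentration for 50% growth inhibition is given as GI50. At the TGI there is no net growth.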

Tests used:
Assay in all cases: NCI-60 cell line screen, 48 h
SK-MEL-2 melanoma = tested on: SK-MEL-2 melanoma
HS 578T breast = tested on: HS 578T breast
BT-549 breast = tested on: BT-549 breast
SN12C renal = tested on: SN12C renal
COLO 205 colon = tested on: COLO 205 colon
RPMI-8226 leukemia = tested on: RPMI-8226 leukemia
M14 melanoma = tested on: M14 melanoma
HOP-62 NSCLC = tested on: HOP-62 NSCLC
ACHN renal = tested on: ACHN renal
PC-3 prostate = tested on: PC-3 prostate
MCF7 breast = tested on: MCF7 breast
SK-MEL-28 melanoma = tested on: SK-MEL-28 melanoma
HCC-2998 colon = tested on: HCC-2998 colon
NCI-H226 lung = tested on: NCI-H226 lung
SF-539 CNS = tested on: SF-539 CNS
SK-OV-3 ovarian = tested on: SK-OV-3 ovarian
HOP-92 NSCLC = tested on: HOP-92 NSCLC
OVCAR-5 ovarian = tested on: OVCAR-5 ovarian
UACC-257 melanoma = tested on: UACC-257 melanoma
MALME-3M melanoma = tested on: MALME-3M melanoma
UO-31 renal = tested on: UO-31 renal
HCT-15 colon = tested on: HCT-15 colon
HL-60(TB) leukemia = tested on: HL-60(TB) leukemia
SNB-19 CNS = tested on: SNB-19 CNS
HT29 colon = tested on: HT29 colon
MDA-MB-231 breast = tested on: MDA-MB-231 breast
CAKI-1 renal = tested on: CAKI-1 renal
786-0 renal = tested on: 786-0 renal
EKVX NSCLC = tested on: EKVX NSCLC
U251 CNS = tested on: U251 CNS
K-562 leukemia = tested on: K-562 leukemia
A549 NSCLC = tested on: A549 NSCLC
SW-620 colon = tested on: SW-620 colon
SF-268 CNS = tested on: SF-268 CNS
IGROV1 ovarian = tested on: IGROV1 ovarian
DU-145 prostate = tested on: DU-145 prostate
OVCAR-4 ovarian = tested on: OVCAR-4 ovarian
MDA-MB-435 = tested on: MDA-MB-435
OVCAR-3 ovarian = tested on: OVCAR-3 ovarian
HCT-116 colon = tested on: HCT-116 colon
NCI/ADR-RES ovarian = tested on: NCI/ADR-RES ovarian
T-47D breast = tested on: T-47D breast
SK-MEL-5 melanoma = tested on: SK-MEL-5 melanoma
SNB-75 CNS = tested on: SNB-75 CNS
RXF 393 renal = tested on: RXF 393 renal
SF-295 CNS = tested on: SF-295 CNS
KM12 colon = tested on: KM12 colon
OVCAR-8 ovarian = tested on: OVCAR-8 ovarian
MOLT-4 leukemia = tested on: MOLT-4 leukemia
NCI-H460 lung = tested on: NCI-H460 lung
NCI-H522 lung = tested on: NCI-H522 lung
NCI-H23 lung = tested on: NCI-H23 lung
CCRF-CEM leukemia = tested on: CCRF-CEM leukemia
TK-10 renal = tested on: TK-10 renal
SR leukemia = tested on: SR leukemia
A498 renal = tested on: A498 renal
LOX IMVI melanoma = tested on: LOX IMVI melanoma
UACC-62 melanoma = tested on: UACC-62 melanoma

For `Cc1cccc(N=C2c3cc([N+](=O)[O-])ccc3-c3c2cc([N+](=O)[O-])cc3[N+](=O)[O-])c1`, the GI50 (SK-MEL-2 melanoma) was 7.39 µM, the TGI (SK-MEL-2 melanoma) was 32.1 µM and the GI50 (HS 578T breast) was 11.3 µM. The TGI (HS 578T breast) was 53.9 µM, the GI50 (BT-549 breast) was 3.45 µM and the TGI (BT-549 breast) was 11.2 µM. The GI50 (SN12C renal) was 2.14 µM, the TGI (SN12C renal) was 4.8 µM and the GI50 (COLO 205 colon) was 3.34 µM. The TGI (COLO 205 colon) was 17.1 µM, the GI50 (RPMI-8226 leukemia) was 2.73 µM and the TGI (RPMI-8226 leukemia) was 10.7 µM. For the same compound, the GI50 (M14 melanoma) was 2.2 µM, the TGI (M14 melanoma) was 4.57 µM and the GI50 (HOP-62 NSCLC) was 4.28 µM. It also gave a TGI (HOP-62 NSCLC) of 19.9 µM, a GI50 (ACHN renal) of 3.36 µM and a TGI (ACHN renal) of 11.5 µM. It also gave a GI50 (PC-3 prostate) of 5.02 µM, a TGI (PC-3 prostate) of 21.6 µM and a GI50 (MCF7 breast) of 6.27 µM. The TGI (MCF7 breast) was 28.2 µM, the GI50 (SK-MEL-28 melanoma) was 13.3 µM and the TGI (SK-MEL-28 melanoma) was 31.3 µM. The GI50 (HCC-2998 colon) was 6.45 µM, the TGI (HCC-2998 colon) was 18.7 µM and the GI50 (NCI-H226 lung) was 5.08 µM. For the same compound, the TGI (NCI-H226 lung) was 22.2 µM, the GI50 (SF-539 CNS) was 17 µM and the TGI (SF-539 CNS) was 37.8 µM. For the same compound, the GI50 (SK-OV-3 ovarian) was greater than 100 µM, the TGI (SK-OV-3 ovarian) was greater than 100 µM and the GI50 (HOP-92 NSCLC) was 2.47 µM. The TGI (HOP-92 NSCLC) was 7.17 µM, the GI50 (OVCAR-5 ovarian) was 18.3 µM and the TGI (OVCAR-5 ovarian) was 40.2 µM. The GI50 (UACC-257 melanoma) was 6.81 µM, the TGI (UACC-257 melanoma) was 34.5 µM and the GI50 (MALME-3M melanoma) was 4.82 µM. The TGI (MALME-3M melanoma) was 21.2 µM, the GI50 (UO-31 renal) was 10.9 µM and the TGI (UO-31 renal) was 29.9 µM. It also gave a GI50 (HCT-15 colon) of 2.8 µM, a TGI (HCT-15 colon) of 10.7 µM and a GI50 (HL-60(TB) leukemia) of 3.35 µM. The TGI (HL-60(TB) leukemia) was 13.1 µM, the GI50 (SNB-19 CNS) was 14.3 µM and the TGI (SNB-19 CNS) was 31.7 µM. For the same compound, the GI50 (HT29 colon) was 4.11 µM, the TGI (HT29 colon) was 27.6 µM and the GI50 (MDA-MB-231 breast) was 2.43 µM. It also gave a TGI (MDA-MB-231 breast) of 5 µM, a GI50 (CAKI-1 renal) of 15.5 µM and a TGI (CAKI-1 renal) of 77.9 µM. For the same compound, the GI50 (786-0 renal) was 2.52 µM, the TGI (786-0 renal) was 5.65 µM and the GI50 (EKVX NSCLC) was 5.08 µM. The TGI (EKVX NSCLC) was 19.7 µM, the GI50 (U251 CNS) was 2.57 µM and the TGI (U251 CNS) was 7.41 µM. For the same compound, the GI50 (K-562 leukemia) was 2.9 µM, the TGI (K-562 leukemia) was 10.5 µM and the GI50 (A549 NSCLC) was 12.3 µM. For the same compound, the TGI (A549 NSCLC) was 32.9 µM, the GI50 (SW-620 colon) was 2.01 µM and the TGI (SW-620 colon) was 3.76 µM. For the same compound, the GI50 (SF-268 CNS) was 6.33 µM, the TGI (SF-268 CNS) was 40.8 µM and the GI50 (IGROV1 ovarian) was 5.89 µM. For the same compound, the TGI (IGROV1 ovarian) was greater than 100 µM, the GI50 (DU-145 prostate) was 3.24 µM and the TGI (DU-145 prostate) was 11 µM. The GI50 (OVCAR-4 ovarian) was 6.98 µM, the TGI (OVCAR-4 ovarian) was greater than 100 µM and the GI50 (MDA-MB-435) was 3.49 µM. It also gave a TGI (MDA-MB-435) of 10.8 µM, a GI50 (OVCAR-3 ovarian) of 2.95 µM and a GI50 (HCT-116 colon) of 1.67 µM. It also gave a TGI (HCT-116 colon) of 3.37 µM, a GI50 (NCI/ADR-RES ovarian) of 12.5 µM and a TGI (NCI/ADR-RES ovarian) greater than 100 µM. The GI50 (T-47D breast) was 1.99 µM, the TGI (T-47D breast) was 4.78 µM and the GI50 (SK-MEL-5 melanoma) was 5.44 µM. The TGI (SK-MEL-5 melanoma) was 17.9 µM, the GI50 (SNB-75 CNS) was 4.59 µM and the TGI (SNB-75 CNS) was 42.4 µM. For the same compound, the GI50 (RXF 393 renal) was 2.28 µM, the TGI (RXF 393 renal) was 4.95 µM and the GI50 (SF-295 CNS) was 25.2 µM. For the same compound, the TGI (SF-295 CNS) was greater than 100 µM, the GI50 (KM12 colon) was 5.06 µM and the TGI (KM12 colon) was 20 µM. It also gave a GI50 (OVCAR-8 ovarian) of 5.88 µM, a TGI (OVCAR-8 ovarian) of 94.1 µM and a GI50 (MOLT-4 leukemia) of 3.64 µM. For the same compound, the TGI (MOLT-4 leukemia) was greater than 100 µM, the GI50 (NCI-H460 lung) was 3.64 µM and the TGI (NCI-H460 lung) was 14.4 µM. It also gave a GI50 (NCI-H522 lung) of 4.35 µM, a TGI (NCI-H522 lung) of 41.7 µM and a GI50 (NCI-H23 lung) of 5.33 µM. For the same compound, the TGI (NCI-H23 lung) was 27.6 µM, the GI50 (CCRF-CEM leukemia) was 3.87 µM and the TGI (CCRF-CEM leukemia) was greater than 100 µM. It also gave a GI50 (TK-10 renal) of 12.9 µM, a TGI (TK-10 renal) greater than 100 µM and a GI50 (SR leukemia) of 1.94 µM. It also gave a TGI (SR leukemia) of 5.36 µM, a GI50 (A498 renal) of 27.8 µM and a TGI (A498 renal) greater than 100 µM. For the same compound, the GI50 (LOX IMVI melanoma) was 1.57 µM, the TGI (LOX IMVI melanoma) was 2.93 µM and the GI50 (UACC-62 melanoma) was 5.03 µM. For the same compound, the TGI (UACC-62 melanoma) was 20.2 µM.
